One experiment deals with Y641N EZH2 (Homo sapiens, UniProt Q15910, Y641N). Kind of experiment: Y641N EZH2 assay (as the EZH2 assay, with H3K27Me2 oligonucleosomes as substrate). The note with it: Y641N EZH2 mutant, reconstituted H3K27Me2 oligonucleosomes as substrate; top concentration 80 μM. It is filed as biochemical. As for the experimental part:
(§1) Assays were carried out by mixing rPRC2 together with biotinylated oligonucleosome substrates in the presence of the radio-labeled enzyme co-factor, S-adenosyl-L-methionine (^3H SAM) (Perkin Elmer) and monitoring the enzymatically mediated transfer of tritiated methyl groups from ^3H SAM to histone lysine residues. The amount of resulting tritiated methylhistone product was measured by first capturing the biotinylated oligonucleosomes in streptavidin (SAV) coated FlashPlates (Perkin Elmer), followed by a wash step to remove un-reacted ^3H SAM, and then counting on a TopCount NXT 384 well plate scintillation counter (Perkin Elmer). The final assay conditions for EZH2 were as follows: 50 mM Tris Buffer pH 8.5, 1 mM DTT, 69 μM Brij-35 detergent, 5.0 mM MgCl2, 0.1 mg/mL BSA, 0.2 μM ^3H SAM, 0.2 μM biotinylated oligonucleosomes, 3.6 μM H3K27me3 peptide and 2 nM EZH2.
(§2) Ten point dose response curves were generated by dispensing varying amounts of the 10 mM compound solution in 10 wells of the 384 well plate (Echo; Labcyte), pure DMSO was then used to backfill the wells to insure all wells have the same amount of DMSO. A 12.5 μL volume of the HMT enzyme, H3K27me3 peptide and oligonucleosome substrate in assay buffer was added to each well of the assay plate using a Multidrop Combi (ThermoFisher). Compounds were pre-incubated with the enzyme for 20 min, followed by initiation of the methyltransferase reaction by addition of 12.5 μL of 3H SAM in assay buffer (final volume=25 μL). The final concentrations of compounds ranged from a top default concentration of 80 μM down to 0.16 μM in ten 2-fold dilution steps. Reactions were carried out for 60 minutes and quenched with 20 μL per well of 1.96 mM SAH, 50 mM Tris PH 8.5, 200 mM EDTA. Stopped reactions were transferred to SAV coated Flashplates (Perkin Elmer), incubated for 120 min, washed with a plate washer, and then read on the TopCount NXT (1.0 min/well) to measure the amount of methylhistone product formed during the reaction.
Assay for Y641N EZH2 was performed as above using reconstituted H3K27Me2 oligonucleosomes as substrate.

Another experiment addresses EZH2 (Homo sapiens, UniProt Q15910). Kind of experiment: EZH2 assay (rPRC2, 3H SAM methyl transfer to biotinylated oligonucleosomes). It is filed as biochemical. The note with it: rPRC2, 2 nM EZH2, biotinylated oligonucleosomes, 0.2 μM 3H SAM; top concentration 80 μM. As for the experimental part: as §1, §2

We go through 15 molecules from patent US9409865B2, “Modulators of methyl modifying enzymes, compositions and uses thereof” (Constellation Pharmaceuticals, Inc., priority 2011, dated 2016).

EZH2, sequence (Q15910 whole entry): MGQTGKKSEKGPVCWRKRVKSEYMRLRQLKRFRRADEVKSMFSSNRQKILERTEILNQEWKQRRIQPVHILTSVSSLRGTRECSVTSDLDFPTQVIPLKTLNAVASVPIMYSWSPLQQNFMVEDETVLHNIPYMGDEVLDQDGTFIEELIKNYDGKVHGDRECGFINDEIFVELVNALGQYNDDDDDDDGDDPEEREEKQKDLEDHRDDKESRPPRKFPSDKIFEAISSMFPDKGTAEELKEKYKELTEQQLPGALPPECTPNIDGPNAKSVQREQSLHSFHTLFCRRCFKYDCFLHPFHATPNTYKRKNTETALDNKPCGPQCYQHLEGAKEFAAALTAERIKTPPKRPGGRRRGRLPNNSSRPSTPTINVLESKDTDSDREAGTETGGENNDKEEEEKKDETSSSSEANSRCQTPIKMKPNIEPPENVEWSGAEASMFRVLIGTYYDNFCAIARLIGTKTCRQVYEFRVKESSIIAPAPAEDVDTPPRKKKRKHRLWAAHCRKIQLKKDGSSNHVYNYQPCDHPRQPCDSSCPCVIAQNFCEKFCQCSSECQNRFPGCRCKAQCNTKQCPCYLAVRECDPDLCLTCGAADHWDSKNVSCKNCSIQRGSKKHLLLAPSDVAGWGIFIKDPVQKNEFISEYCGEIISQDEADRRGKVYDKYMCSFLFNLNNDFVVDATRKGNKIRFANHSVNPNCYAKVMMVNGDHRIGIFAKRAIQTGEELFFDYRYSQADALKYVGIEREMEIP
EZH2, sequence (O75530 whole entry partner): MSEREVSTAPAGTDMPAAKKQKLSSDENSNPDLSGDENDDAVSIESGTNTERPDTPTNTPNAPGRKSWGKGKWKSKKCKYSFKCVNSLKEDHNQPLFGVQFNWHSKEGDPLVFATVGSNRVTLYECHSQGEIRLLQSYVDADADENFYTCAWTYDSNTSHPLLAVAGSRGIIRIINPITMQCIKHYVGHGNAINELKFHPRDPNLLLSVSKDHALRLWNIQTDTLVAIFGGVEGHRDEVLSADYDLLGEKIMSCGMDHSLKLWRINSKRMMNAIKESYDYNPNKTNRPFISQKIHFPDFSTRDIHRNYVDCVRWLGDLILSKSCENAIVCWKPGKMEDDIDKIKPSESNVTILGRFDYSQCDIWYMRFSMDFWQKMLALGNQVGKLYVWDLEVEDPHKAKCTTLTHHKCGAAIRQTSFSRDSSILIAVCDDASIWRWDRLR
EZH2, sequence (Q15022 whole entry partner): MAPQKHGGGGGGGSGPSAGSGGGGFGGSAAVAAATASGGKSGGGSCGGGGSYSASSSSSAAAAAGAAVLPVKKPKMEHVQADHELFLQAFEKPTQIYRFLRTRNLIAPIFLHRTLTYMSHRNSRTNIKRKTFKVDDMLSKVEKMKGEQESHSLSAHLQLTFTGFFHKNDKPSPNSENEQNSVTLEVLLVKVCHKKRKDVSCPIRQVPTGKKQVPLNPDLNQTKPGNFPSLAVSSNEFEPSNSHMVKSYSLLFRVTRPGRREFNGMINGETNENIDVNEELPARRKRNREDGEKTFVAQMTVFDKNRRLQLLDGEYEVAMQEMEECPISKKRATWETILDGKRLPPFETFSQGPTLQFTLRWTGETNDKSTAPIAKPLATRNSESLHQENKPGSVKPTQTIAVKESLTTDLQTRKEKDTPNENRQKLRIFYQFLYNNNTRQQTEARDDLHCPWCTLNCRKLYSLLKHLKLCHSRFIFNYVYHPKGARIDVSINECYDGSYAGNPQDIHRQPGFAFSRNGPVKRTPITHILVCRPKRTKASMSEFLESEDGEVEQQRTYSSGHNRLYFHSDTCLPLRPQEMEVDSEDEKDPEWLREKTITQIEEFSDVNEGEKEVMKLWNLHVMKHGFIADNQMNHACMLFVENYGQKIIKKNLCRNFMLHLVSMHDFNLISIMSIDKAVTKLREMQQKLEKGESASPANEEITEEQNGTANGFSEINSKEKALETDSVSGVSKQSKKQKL
Y641N EZH2, sequence (Q15910 whole entry Y641N): as the sequence (Q15910 whole entry) above, with Y641N counted along it
Y641N EZH2, sequence (O75530 whole entry partner): as the sequence (O75530 whole entry partner) above
Y641N EZH2, sequence (Q15022 whole entry partner): as the sequence (Q15022 whole entry partner) above

In general, IC50 refers to the point on the concentration scale where inhibition reaches its midpoint. High values mean a need for much substance, low ones inhibition by little substance. `Cc1cc(C)c(CNC(=O)c2ccc3c(c2)OCC3C)c(=O)[nH]1` (stereo not drawn) [Compound I-12]: the IC50 against Y641N EZH2 is over 80 µM; at EZH2 it was 1 to 10 µM.

Regarding `CCCC(C)c1ccc(C(=O)NCc2c(C)cc(C)[nH]c2=O)cc1` (stereo not drawn) [Compound I-10, N-((2-hydroxy-4,6-dimethylpyridin-3-yl)methyl)-4-(pentan-2-yl)benzamide], the figures for the IC50 at Y641N EZH2 and at EZH2 were 1 to 10 µM and under 1 µM, respectively.

For `Cc1cc(C)c(CNC(=O)c2ccc(C(C)OCC(C)C)cc2)c(=O)[nH]1` (stereo not drawn) [Compound I-8, N-((2-hydroxy-4,6-dimethylpyridin-3-yl)methyl)-4-(1-isobutoxyethyl)benzamide], the IC50 on Y641N EZH2 was 1 to 10 µM; at EZH2, under 1 µM.

For the molecule `Cc1cc(C)c(CNC(=O)c2ccc(C(C)C)cc2C)c(=O)[nH]1` [Compound I-1, N-((2-hydroxy-4,6-dimethylpyridin-3-yl)methyl)-4-isopropyl-2-methylbenzamide], the IC50 on Y641N EZH2 and against EZH2 was 1 to 10 µM throughout.

Consider `Cc1cc(C)c(CNC(=O)c2ccn(C(C)C)c(=O)c2)c(=O)[nH]1` [Compound I-14, N-((2-hydroxy-4,6-dimethylpyridin-3-yl)methyl)-1-isopropyl-2-oxo-1,2-dihydropyridine-4-carboxamide], for which the IC50 against Y641N EZH2 was over 80 µM; against EZH2 it was 1 to 10 µM.

`Cc1cc(C)c(CNC(=O)c2ccc(C(C)C)cc2Cl)c(=O)[nH]1` [Compound I-2, 2-chloro-N-((2-hydroxy-4,6-dimethylpyridin-3-yl)methyl)-4-isopropyl benzamide]: the IC50 at Y641N EZH2 is 1 to 10 µM; against EZH2 it was under 1 µM.

As for `Cc1cc(C)c(CNC(=O)c2ccc(C(C)(C)O)cc2)c(=O)[nH]1` [Compound I-20, N-((2-hydroxy-4,6-dimethylpyridin-3-yl)methyl)-4-(2-hydroxypropan-2-yl)benzamide], the results for the IC50 against Y641N EZH2 and at EZH2 were over 80 µM and over 10 µM, respectively.

Regarding `CCOC(C)c1ccc(C(=O)NCc2c(C)cc(C)[nH]c2=O)cc1` (stereo not drawn) [Compound I-7, 4-(1-ethoxyethyl)-N-((2-hydroxy-4,6-dimethylpyridin-3-yl)methyl)benzamide], the IC50 at Y641N EZH2 was 1 to 10 µM; against EZH2, under 1 µM.

Consider `COC(C)(C)c1ccc(C(=O)NCc2c(C)cc(C)[nH]c2=O)cc1` [Compound I-3, N-((2-hydroxy-4,6-dimethylpyridin-3-yl)methyl)-4-(2-methoxypropan-2-yl)benzamide], for which the IC50 at Y641N EZH2 was over 10 µM; on EZH2, 1 to 10 µM.

Regarding `COC(C)c1ccc(C(=O)NCc2c(C)cc(C)[nH]c2=O)cc1` (stereo not drawn) [Compound I-4, N-((2-hydroxy-4,6-dimethylpyridin-3-yl)methyl)-4-(1-methoxyethyl)benzamide], the IC50 on Y641N EZH2 was 1 to 10 µM; against EZH2, under 1 µM.

Regarding `Cc1cc(C)c(CNC(=O)c2ccc(C(C)OC(C)C)cc2)c(=O)[nH]1` (stereo not drawn) [Compound I-5, N-((2-hydroxy-4,6-dimethylpyridin-3-yl)methyl)-4-(1-isopropoxyethyl)benzamide], the IC50 against Y641N EZH2 was 1 to 10 µM; on EZH2, under 1 µM.

`Cc1cc(C)c(CNC(=O)c2ccc(COC(C)C)cc2)c(=O)[nH]1` [Compound I-6]: the IC50 against Y641N EZH2 and against EZH2 was over 10 µM each time.

As for `CC(=O)NC(C)c1ccc(C(=O)NCc2c(C)cc(C)[nH]c2=O)cc1` (stereo not drawn) [Compound I-29, 4-(1-acetamidoethyl)-N-((2-hydroxy-4,6-dimethylpyridin-3-yl)methyl)benzamide], the IC50 at Y641N EZH2 and at EZH2 was over 80 µM in each case.

In the case of `Cc1cc(C)c(CNC(=O)c2ccc(C(C)C)c(Oc3ccccc3)c2)c(=O)[nH]1` [Compound I-11, N-((2-hydroxy-4,6-dimethylpyridin-3-yl)methyl)-4-isopropyl-3-phenoxy benzamide], the results for the IC50 on Y641N EZH2 and on EZH2 were over 80 µM and 1 to 10 µM, respectively.

For `Cc1cc(C)c(CNC(=O)c2ccc(C(C)C(C)C)cc2)c(=O)[nH]1` (stereo not drawn) [Compound I-9, N-((2-hydroxy-4,6-dimethylpyridin-3-yl)methyl)-4-(3-methylbutan-2-yl)benzamide], the IC50 on Y641N EZH2 was 1 to 10 µM; against EZH2, under 1 µM.
